Reference: patent US20170247693A1 (priority 2016, published 2017)

System: HepG2 cells
Conditions: normoxia

SMILES: COc1cccc2c1C(=O)c1c(O)c3c(c(O)c1C2=O)C[C@@](O)(C(=O)CO)C[C@@H]3O[C@H]1C[C@H](N)[C@H](O)[C@H](C)O1 [DOX, Doxorubicin]
- minimal concentration that diminished the growth of the treated cells (HepG2): 1 μm
- decrease of cell viability (HepG2 infected with vACE-NT, 72 h after administering DOX (1 μm)): 27%
